Columns and labels:
[1] = tested on: Hela cells expressing HU and TMTX resistance gene; experiment: Hydroxyurea and Trimetrexate cytotoxic assay: selective enrichment of transduced (GFP positive) Hela cells by FACS; type: cell-based; settings: three days, FIG. 2
Procedure: Control and transduced Hela cells were incubated with HU and TMTX for 3 days, after which survival rate of both cell population were measured by FACS analysis. Hela cells were transduced with lentivector expressing GFP and the Hydroxyurea or Trimetrexate resistance genes. Three to five days after transduction, cell transduction efficiency was determined by measuring GFP fluorescence. Transduced Hela cells were treated with the appropriate concentration of cytotoxic compounds and survival rate were measured by FACS analysis. Next, the ability of either HU or TMTX to selectively enrich transduced Hela cells was evaluated by FACS. Hela cells were transduced as outlined above and then cultured in control media or media including 25 μM HU, 100 μM HU, 1 nM TMTX or 10 nM TMTX. After culture in the indicated conditions for three days, the proportion of transduced cells (GFP positive) versus non-transduced cells was determined by FACS and the results plotted.

[2] = tested on: GFP expressing blood cells; experiment: In vivo selective enrichment of blood cells expressing HU resistance gene after bone marrow transplantation; design: species or system C57/B16 mice
Procedure: FIG. 3: In vivo selective enrichment of blood cells expressing HU and TMTX resistance gene. Bone marrow transplantation experiments were performed in C57/b16 mice. Total bone marrow was obtained from large bones of C57/B16 mice and maintained for 24 h in IMDM medium supplemented with 100 ng/ml of SCF. Bone marrow cells were then transduced with 10^9 lentivector particles for 8 hours before being injected into the tail vein of irradiated C57/B16 mice. Six to eight weeks later, blood samples were taken and GFP expression was measured by FACS. After which mice were injected intraperitoneally with either HU or TMTX with initial doses of HU of 200, 500 and 1000 mg/kg per day and initial doses of TMTX of 10, 25, 50 mg/kg with 2 injections per week. GFP expressing blood cells were measured once a week. (A) Irradiated mice, transplanted with bone marrow cells and transduced with a lentivector expressing GFP and the hydroxyurea resistance (GFP-HU).
In order to more directly assess the ability of HU and TMTX to select cells in vivo studies were undertaken in mice injected with transduced cells. […] Six to eight weeks later, blood samples were taken and GPF expression was measured by FACS. […] GFP expressing blood cells were measured once a week.

| SMILES | selection of transduced cells (GFP positive versus non-transduced, FACS) ([1]; 25 μM HU and 100 μM HU) | transient increase in GFP-positive leukocytes ([2]; irradiated mice transplanted with bone marrow cells transduced with GFP-HU lentivector, hydroxyurea-treated, FIG. 3A) | circulating GFP positive cells ([2]; some treated animals, one week after HU injection, intraperitoneal, transient increase, FIG. 3) | selection of transduced cells (GFP positive versus non-transduced, FACS) ([1]; 10 nM TMTX (tested at 1 nM and 10 nM)) |
| --- | --- | --- | --- | --- |
| NC(=O)NO [HU, Hydroxyurea] | modest selection | up to 8% | 5%-10% |  |
| COc1cc(NCc2ccc3nc(N)nc(N)c3c2C)cc(OC)c1OC [TMTX, Trimetrexate] |  |  |  | significant selection |

— patent US20160010094A1, “TRANSGENIC CELL SELECTION” (UNIVERSITE DE GENEVE, priority 2013, published 2016)
